“Also recorded” adds a separate entry of the source.
Assays:
[1] = test system: S. pombi; assay: S. pombi oxidative stress, Propidium iodide staining; format: cell-based; settings: EGTA 2500 μM during stress; 50 min 1 mM H2O2
Description: A culture of S. pombi was exposed to 1 mM hydrogen peroxide for 50 min. Following this the yeast cells were washed in buffer and stained with the dye Propidium iodide (PI) and placed on a microscope slide under a coverslip and imaged using Nomarski and epifluorescence microscopy to identify the percentage of yeast cells that underwent necrosis. Treatment is EGTA 2500 μM during stress. Two repeats were performed.
(§1) Bacteria, E. coli, and yeast, S. pombi, were exposed to toxin hydrogen peroxide stress (stress is for 50 min 1 mM H2O2) with or without high doses (2500 μM; c.f. FIG. 2) of the chelating agent EGTA (inhibitor of the predicted weak spot of loss of calcium ion homeostasis in the cytosol) delivered during the stress.
For yeast, cells were stained with the standard viability dye Propidium iodide (PI) that only enters necrotic cells, placed on a microscope slide under a coverslip, and imaged using Nomarski and epifluorescence microscopy to identify the percentage of cells that undergo necrosis (all cells present could be counted using Nomarski microscopy).

[2] = test system: Hepg2s spheroids; assay: Hepg2s spheroids made by hanging drop technique, necrotic core formation; format: cell-based, human
Description: Multi-cellular spheroids were prepared using a hanging drop method. A stock solution of methylcellulose (MC) was prepared by dissolving 1.2 g of MC powder (4000 cP, Sigma-Aldrich) in 100 ml of DMEM. The solution was magnetically stirred overnight at 4° C. and subsequently centrifuged at 4,000 g for 3 hrs. HepG2s cells were re-suspended in cell medium containing 20% MC stock solution at a concentration of 20,000 cells per 50 μL spheroid. 50 μL drops were subsequently pipetted onto a non-adherent petri dish (Greiner) and, replacing the lid, the dish was turned upside-down and incubated overnight at 37° C. Multi-cellular spheroids were harvested individually with a wide bore pipette or collectively by adding 5 mL cell medium to the dish, collecting and centrifuging the suspension at 300 g for 5 min and resuspending the spheroids in cell medium. Spheroids were then cultured for 5 days in 48 well plates containing 2.5% agarose gel and 400 μl cell medium. EGTA was added at 0 and 2500 μM to both the spheroid pre-cursor solution and the cell culture medium. At day 3 and day 5 the spheroids were imaged and assessed.
Next, 3D cell culture was employed using Hepg2 cells and a standard hanging drop protocol of spheroid production. […] Necrotic cores disrupt physiology, and a challenge is vasculature formation faster than necrotic core formation. […]

[3] = test system: E. coli; assay: E. coli oxidative stress, colony forming units; format: cell-based; settings: EGTA 2500 μM during stress; 50 min 1 mM H2O2
Description: 2 loops of E. coli stationary-phase bacterial cells collected post seeding (80 μL from a culture grown for 12 hrs) on agar plates containing bactopeptone and allowing to grow for 24 hrs was collected in buffer. Bacterial cells were then stressed for 50 min using 1 mM hydrogen peroxide. Treatment is EGTA 2500 μM during stress. Cells were then washed in buffer. Following stress, bacteria was washed in buffer and then diluted 1:500 in MilliQ water and seeded onto agar plates containing bactopeptone and left at 37° C. overnight. This was followed by counting colony forming units (CFU) counted. Three repeats were performed.
as §1
Following stress, bacteria cells were then placed on agar plates and allowed to grow at 37° C. overnight and colony forming units (CFU) were then counted.

[4] = test system: D. melanogaster; assay: Drosophila cold/freeze stress survival; format: in vivo, Drosophila melanogaster; settings: fed 12 hrs food containing 2500 μM EGTA; 0 degrees for 10 min
Description: Animals were under standard culture conditions. On day 1 of adulthood, they were starved for 8 hrs, then fed 12 hrs+/−EGTA 2500 μM. Following this, the animals were moved to 0° C. for 10 min and then recovered and survival measured.
Fruit flies, Drosophila melanogaster, were likewise exposed to heat and cold stress. […]. Flies were starved for a short period of 8 hrs and then fed for 12 hrs yeast containing high doses of a calcium chelating agent to ensure an adequate amount of drug entered the animals; doses used were: 0 or 2500 μM EGTA. This was followed by cold/freeze stress, where animals were placed at 0° C. for 10 min, and then animals were scored for survival every 12 hrs. […] Thus, like with single celled yeast and bacteria and C. elegans, a full organism level protective effect of blocking the predicted weak spots associated with cell death necrosis was also seen in fruit flies.

[5] = test system: C. elegans; assay: C. elegans movement analysis post stress; format: in vivo, Caenorhabditis elegans; settings: EGTA 2500 μM in liposomes 3 hrs prior stress; cold, heat, oxidative and toxin stress
Source text: Movement was scored according to an adapted methodology (from Herndon et al., 2002). Briefly, animals were marked as either: normal movement; or defective movement. Defective movement was defined as worms that are stationary unless touched with a pick, in which case they may only move a few […] forward before stopping again or they may not move at all. 100 animals were used per trial and the percentage of worms with defective movement was scored.
According to the protocol in Shibamura et al., 2009, drug was dissolved in MilliQ water and encapsulated in liposomes. Drug used was EGTA, at a final concentration of 2500 μM. Briefly, L-a-phosphatidylcholine (LαPC) was used to prepare liposomes by first dissolving LαPC in distilled water at the concentration of 96 mg/ml. A ×2 concentration of drug solution was mixed with LαPC to a 1:1 ratio and heated to 65° C. Drug-LαPC solution was then converted into liposomes using a mini-Avanti extruder a 100 nm pore size polycarbonate membrane. MilliQ water encapsulated in liposomes was used a as the empty vector control. Following preparation, 25 μl of the liposome drug solution was spread onto a 25 μl spot OP50 lawn on NGM plates and worms were then picked onto the plates.
The percentage of animals with this defective movement were scored post stress.

## O=C(O)CN(CCOCCOCCN(CC(=O)O)CC(=O)O)CC(=O)O [EGTA, ethylene glycol-bis(β-aminoethyl ether)-N,N,N′,N′-tetraacetic acid]
[1]
  S. pombi death / % of necrotic (PI stained) cells following oxidative stress: death is prevented
[2]; hanging drop Hepg2s spheroids, 2500 μM EGTA or 5000 μM EGTA, 5 days
  necrotic core formation: no necrotic core even after 5 days
[2]; hanging drop Hepg2 spheroids, 20,000 cells, EGTA at 250 and 500 mM, day 5
  necrotic core formation: no necrotic cores being visible
[3]
  E. coli death / colony forming units (CFU) following oxidative stress: death is prevented
[4]
  D. melanogaster death / survival following cold/freeze stress: death is prevented; also recorded: significant protective effect
[5]
  movement defects post stress: reduced movement defects

From patent US20260216141A1, “NECROSIS INHIBITOR” (LINKGEVITY LIMITED, priority 2023, published 2026)
